In ChEMBL document CHEMBL1201862, “PubChem BioAssay data set” (2004):
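48-hour exposure; five concentrations; linearly interpolated endpoints. Here, GI50 denotes the concentration required for 50% inhibition of growth.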 Activity calls are given as the source filed them. No stated cut-off is given here; in the data, active = GI50 up to about 1.1 µM and inactive = higher.

Columns and labels:
Assay in all cases: NCI anticancer screen, dose series, 48 h
[1] = test system: SK-MEL-5
[2] = test system: HCC 2998
[3] = test system: DMS-273
[4] = test system: MOLT-4
[5] = test system: UACC-257
[6] = test system: SK-MEL-2
[7] = test system: HL-60
[8] = test system: Malme-3M
[9] = test system: OVCAR-3
[10] = test system: SR
[11] = test system: A549
[12] = test system: SF-268
[13] = test system: K562
[14] = test system: HCT-15
[15] = test system: HT-29
[16] = test system: OVCAR-4
[17] = test system: NCI-H460
[18] = test system: MDA-N
[19] = test system: NCI/ADR-RES
[20] = test system: PC-3

| SMILES | GI50 [1] | GI50 [2] | GI50 [3] | GI50 [4] | GI50 [5] | GI50 [6] | GI50 [7] | GI50 [8] | GI50 [9] | GI50 [10] | GI50 [11] | GI50 [12] | GI50 [13] | GI50 [14] [µM] | GI50 [15] | GI50 [16] | GI50 [17] | GI50 [18] | GI50 [19] | GI50 [20] |
| --- | --- | --- | --- | --- | --- | --- | --- | --- | --- | --- | --- | --- | --- | --- | --- | --- | --- | --- | --- | --- |
| N#CC1(Cc2ccccc2Cl)c2ccccc2C=CN1C(=O)c1ccccc1 (stereo not given) | 47.4 µM (inactive) | > 100 µM (inactive) | > 100 µM (inactive) | 28.4 µM (inactive) | 78.7 µM (inactive) | > 100 µM (inactive) | 29 µM (inactive) | 34.1 µM (inactive) | > 100 µM (inactive) | 45.5 µM (inactive) | 90.8 µM (inactive) | > 100 µM (inactive) | 25.1 µM (inactive) | 98.6 | 75.5 µM (inactive) | – | – | – | – | – |
| FC(F)(F)C1(Cl)C(c2ccccc2)=C1c1ccccc1 | 11.7 µM (inactive) | 17.7 µM (inactive) | 14.3 µM (inactive) | 4.01 µM (inactive) | 14 µM (inactive) | 15 µM (inactive) | 7.73 µM (inactive) | 15.1 µM (inactive) | 17.2 µM (inactive) | 22.3 µM (inactive) | 15.1 µM (inactive) | 16.9 µM (inactive) | 12.2 µM (inactive) | 14.3 | 15.8 µM (inactive) | 13.5 µM (inactive) | 16 µM (inactive) | – | – | – |
| O=C(CCc1n[nH]c(=S)o1)Nc1ccc(Cl)cc1Cl | > 100 µM (inactive) | > 100 µM (inactive) | 30.8 µM (inactive) | > 100 µM (inactive) | > 100 µM (inactive) | – | 76.4 µM (inactive) | > 100 µM (inactive) | > 100 µM (inactive) | – | > 100 µM (inactive) | > 100 µM (inactive) | 38.7 µM (inactive) | 20.9 | 34.3 µM (inactive) | > 100 µM (inactive) | > 100 µM (inactive) | – | – | – |
| Cc1ccc(S(=O)(=O)c2ccccn2)cc1 | > 100 µM (inactive) | > 100 µM (inactive) | > 100 µM (inactive) | > 100 µM (inactive) | > 100 µM (inactive) | > 100 µM (inactive) | > 100 µM (inactive) | > 100 µM (inactive) | > 100 µM (inactive) | – | > 100 µM (inactive) | > 100 µM (inactive) | > 100 µM (inactive) | > 100 | > 100 µM (inactive) | > 100 µM (inactive) | > 100 µM (inactive) | – | – | – |
| CN(C(=O)/C=C/c1ccccc1)C1C2CN3CCC(O2)C13 (stereo not given) | > 100 µM (inactive) | > 100 µM (inactive) | > 100 µM (inactive) | > 100 µM (inactive) | > 100 µM (inactive) | > 100 µM (inactive) | > 100 µM (inactive) | > 100 µM (inactive) | > 100 µM (inactive) | – | > 100 µM (inactive) | > 100 µM (inactive) | > 100 µM (inactive) | > 100 | > 100 µM (inactive) | > 100 µM (inactive) | > 100 µM (inactive) | – | – | – |
| [N-]=[N+]=NC1(c2ccccc2)C(=O)C(Cl)=C(c2ccccc2)N(c2ccccc2)C1=O (stereo not given) | > 100 µM (inactive) | > 100 µM (inactive) | > 100 µM (inactive) | 58.5 µM (inactive) | > 100 µM (inactive) | > 100 µM (inactive) | 43.1 µM (inactive) | > 100 µM (inactive) | 65.3 µM (inactive) | 65.5 µM (inactive) | > 100 µM (inactive) | > 100 µM (inactive) | 46.8 µM (inactive) | > 100 | > 100 µM (inactive) | > 100 µM (inactive) | > 100 µM (inactive) | – | – | – |
| COc1cc2c(c(OC)c1OC)-c1ccc(SC)c(=O)cc1[C@@H](NC(=O)c1ccc(OC(C)=O)cc1)CC2 | – | 0.0218 µM (active) | 0.01 µM (active) | 0.0409 µM (active) | 0.0349 µM (active) | – | 0.0338 µM (active) | 0.0238 µM (active) | 0.015 µM (active) | – | 0.01 µM (active) | 0.0306 µM (active) | 0.0301 µM (active) | 0.0229 | 0.0248 µM (active) | 0.0675 µM (active) | 0.0326 µM (active) | – | – | – |
| C=CC[P@]1(=O)O[C@H](c2ccccc2)[C@H](C)N1C | > 100 µM (inactive) | > 100 µM (inactive) | > 100 µM (inactive) | > 100 µM (inactive) | – | – | > 100 µM (inactive) | > 100 µM (inactive) | > 100 µM (inactive) | > 100 µM (inactive) | > 100 µM (inactive) | > 100 µM (inactive) | > 100 µM (inactive) | > 100 | > 100 µM (inactive) | > 100 µM (inactive) | > 100 µM (inactive) | – | – | – |
| O=C1NC2(CCCC2)C(=O)C12CCCC2 | > 100 µM (inactive) | – | > 100 µM (inactive) | > 100 µM (inactive) | > 100 µM (inactive) | > 100 µM (inactive) | > 100 µM (inactive) | > 100 µM (inactive) | > 100 µM (inactive) | > 100 µM (inactive) | > 100 µM (inactive) | > 100 µM (inactive) | > 100 µM (inactive) | > 100 | > 100 µM (inactive) | > 100 µM (inactive) | > 100 µM (inactive) | – | – | – |
| CC(C)OP(=O)(OC(C)C)/C(=N/Nc1ccc([N+](=O)[O-])cc1)NNC(=O)c1ccccc1 | 17.4 µM (inactive) | 25.8 µM (inactive) | > 10 µM (inactive) | 17.2 µM (inactive) | 37.3 µM (inactive) | 43.2 µM (inactive) | 19.7 µM (inactive) | > 100 µM (inactive) | 34.3 µM (inactive) | 22.3 µM (inactive) | 55.6 µM (inactive) | 36.7 µM (inactive) | 29.8 µM (inactive) | 48.1 | – | 31.4 µM (inactive) | 28.8 µM (inactive) | – | – | – |
| N[C@H](C(=O)O)[C@H](Cl)CC(=O)O | > 100 µM (inactive) | > 100 µM (inactive) | > 100 µM (inactive) | > 100 µM (inactive) | > 100 µM (inactive) | > 100 µM (inactive) | > 100 µM (inactive) | > 100 µM (inactive) | > 100 µM (inactive) | – | > 100 µM (inactive) | > 100 µM (inactive) | > 100 µM (inactive) | > 100 | > 100 µM (inactive) | > 100 µM (inactive) | > 100 µM (inactive) | – | – | – |
| COC(=O)N/N=C(\C)C(CN(C)C)C(c1ccccc1)c1c(O)c2ccccc2oc1=O (stereo not given) | > 100 µM (inactive) | > 100 µM (inactive) | > 100 µM (inactive) | > 100 µM (inactive) | > 100 µM (inactive) | > 100 µM (inactive) | > 100 µM (inactive) | > 100 µM (inactive) | – | > 100 µM (inactive) | > 100 µM (inactive) | > 100 µM (inactive) | > 100 µM (inactive) | > 100 | > 100 µM (inactive) | > 100 µM (inactive) | – | – | – | – |
| C#CCOCn1cnc2ncnc(N)c21 | > 100 µM (inactive) | > 100 µM (inactive) | > 100 µM (inactive) | > 100 µM (inactive) | > 100 µM (inactive) | > 100 µM (inactive) | – | > 100 µM (inactive) | > 100 µM (inactive) | > 100 µM (inactive) | > 100 µM (inactive) | > 100 µM (inactive) | > 100 µM (inactive) | – | > 100 µM (inactive) | > 100 µM (inactive) | > 100 µM (inactive) | – | – | – |
| COc1cc2c(cc1OC)-c1c3cc(O)ccc3nn[n+]1CC2 | > 100 µM (inactive) | > 100 µM (inactive) | > 100 µM (inactive) | > 100 µM (inactive) | – | – | > 100 µM (inactive) | – | > 100 µM (inactive) | – | > 100 µM (inactive) | > 100 µM (inactive) | > 100 µM (inactive) | – | > 100 µM (inactive) | > 100 µM (inactive) | > 100 µM (inactive) | – | – | – |
| CC(=O)N(C)OC(=O)CC(=O)c1ccccc1 | > 100 µM (inactive) | > 100 µM (inactive) | > 100 µM (inactive) | > 100 µM (inactive) | > 100 µM (inactive) | – | > 100 µM (inactive) | > 100 µM (inactive) | > 100 µM (inactive) | > 100 µM (inactive) | > 100 µM (inactive) | > 100 µM (inactive) | > 100 µM (inactive) | – | > 100 µM (inactive) | > 100 µM (inactive) | > 100 µM (inactive) | – | – | – |
| O=C(O)C(CS)NCc1c2ccccc2[n+]([O-])c2ccccc12 (stereo not given) | 30.7 µM (inactive) | 36.1 µM (inactive) | 31.6 µM (inactive) | 13.8 µM (inactive) | > 100 µM (inactive) | 45.6 µM (inactive) | 23.8 µM (inactive) | 63.1 µM (inactive) | 81.7 µM (inactive) | – | > 100 µM (inactive) | 23 µM (inactive) | 20.5 µM (inactive) | 22.8 | 37.8 µM (inactive) | 24.9 µM (inactive) | 41.4 µM (inactive) | – | – | – |
| CCOC(=O)NC1CN2CCC1CC2 (stereo not given) | > 100 µM (inactive) | > 100 µM (inactive) | – | > 100 µM (inactive) | > 100 µM (inactive) | > 100 µM (inactive) | > 100 µM (inactive) | > 100 µM (inactive) | > 100 µM (inactive) | > 100 µM (inactive) | > 100 µM (inactive) | > 100 µM (inactive) | > 100 µM (inactive) | > 100 | > 100 µM (inactive) | > 100 µM (inactive) | > 100 µM (inactive) | > 100 µM (inactive) | > 100 µM (inactive) | > 100 µM (inactive) |
| CC(C)(C)NNC(=O)CCn1[nH]c(=O)c(Cl)c(Cl)c1=O | – | > 100 µM (inactive) | > 100 µM (inactive) | > 100 µM (inactive) | > 100 µM (inactive) | > 100 µM (inactive) | > 100 µM (inactive) | > 100 µM (inactive) | > 100 µM (inactive) | – | > 100 µM (inactive) | > 100 µM (inactive) | > 100 µM (inactive) | > 100 | > 100 µM (inactive) | > 100 µM (inactive) | > 100 µM (inactive) | – | – | – |
